Results: PubChem BioAssay AID330 (DTP/NCI, 2004)
“And” between values parts separate entries of the source, which are not always exact repeats. Equal values may be shown once. Toxic doses and inconclusive results are not listed.

Test system: P388 leukemia ip, CD2F1 mice, survival T/C
Assay: NCI In Vivo Anticancer Drug Screen. Data for tumor model P388 Leukemia (intraperitoneal) in CD2F1 (CDF1) mice
Conditions: endpoint: median survival time, higher = longer survival
Procedure, shortened: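 Mice carrying the transplanted tumor received test compound or vehicle. Survival was recorded in each group, and the value is the treated-group measurement divided by that of the vehicle-treated control group.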

[1] = dose: 50.0 mg/kg/injection, schedule: Q01DX009 (ip), vehicle: saline with Tween-80
[2] = dose: 100.0 mg/kg/injection, schedule: Q01DX009 (ip), vehicle: saline with Tween-80
[3] = dose: 200.0 mg/kg/injection, schedule: Q01DX009 (ip), vehicle: saline with Tween-80
[4] = dose: 25.0 mg/kg/injection, schedule: Q01DX009 (ip), vehicle: Klucel (hydroxypropylcellulose) (HPC)
[5] = dose: 50.0 mg/kg/injection, schedule: Q01DX009 (ip), vehicle: Klucel (hydroxypropylcellulose) (HPC)
[6] = dose: 100.0 mg/kg/injection, schedule: Q01DX009 (ip), vehicle: Klucel (hydroxypropylcellulose) (HPC)

What does the source list for `COC(=O)C1CC(C(=O)c2ccccc2)N2C=CC=C(C#N)C12` (centres undefined)?
T/C (dose: 4.38 mg/kg/injection, schedule: Q01DX005 (ip), vehicle: Klucel (hydroxypropylcellulose) (HPC)): 101 % of control; T/C (dose: 8.75 mg/kg/injection, schedule: Q01DX005 (ip), vehicle: Klucel (hydroxypropylcellulose) (HPC)): 91 % of control; T/C (dose: 17.5 mg/kg/injection, schedule: Q01DX005 (ip), vehicle: Klucel (hydroxypropylcellulose) (HPC)): 101 % of control

What does the source list for `CCN(CC)CCCNc1ccc(C)c2sc3ccccc3c(=O)c12`?
T/C (dose: 12.5 mg/kg/injection, schedule: Q01DX005 (ip), vehicle: saline): 100 % of control; T/C (dose: 25.0 mg/kg/injection, schedule: Q01DX005 (ip), vehicle: saline): 109 % of control; T/C (dose: 50.0 mg/kg/injection, schedule: Q01DX005 (ip), vehicle: saline): 99 % of control and 114 % of control

Which T/C [1] does the source give for `CC(=O)OC1SC(OC(C)=O)C2OC(=O)OC12` (centres undefined) here?
Its T/C is 101 % of control.

And the T/C [2]?
The T/C was 108 % of control.

And the T/C [3]?
Its T/C is 100 % of control.

What does the source list for `CC(=O)CC(C)=NCCN=C(C)CC(C)=O.C[CH2][Sn][CH2]C`?
T/C (dose: 12.5 mg/kg/injection, schedule: Q04DX003 (ip), vehicle: saline): 106 % of control; T/C (dose: 25.0 mg/kg/injection, schedule: Q04DX003 (ip), vehicle: saline): 105 % of control; T/C (dose: 50.0 mg/kg/injection, schedule: Q04DX003 (ip), vehicle: saline): 120 % of control; T/C (dose: 100.0 mg/kg/injection, schedule: Q04DX003 (ip), vehicle: saline): 150 % of control

Which T/C [4] does the source give for `Clc1cc(Cl)c(Cl)nn1` here?
The T/C was 98 % of control.

And the T/C [5]?
The T/C was 94 % of control.

What about the T/C [6] of the same compound?
The T/C was 92 % of control.

`Cc1nn(C(N)=S)c(C)c1N=Nc1cc(Cl)ccc1Cl` was tested. Which T/C (dose: 50.0 mg/kg/injection, schedule: Q01DX005 (ip), vehicle: saline with Tween-80) did it give?
Its T/C is 94 % of control.

And the T/C (dose: 100.0 mg/kg/injection, schedule: Q01DX005 (ip), vehicle: saline with Tween-80)?
The T/C was 86 % of control.

And the T/C (dose: 200.0 mg/kg/injection, schedule: Q01DX005 (ip), vehicle: saline with Tween-80)?
Its T/C is 88 % of control.

Which T/C (dose: 60.0 mg/kg/injection, schedule: Q01DX005 (ip), vehicle: Klucel (hydroxypropylcellulose) (HPC)) does the source give for `COc1ccc2c3c1OC1CC(N4CCCC4)=C(c4c([N+](=O)[O-])cc([N+](=O)[O-])cc4[N+](=O)[O-])C4(O)C(C2)N(C)CCC314` (centres undefined) here?
Its T/C is 94 % of control.

And the T/C (dose: 120.0 mg/kg/injection, schedule: Q01DX005 (ip), vehicle: Klucel (hydroxypropylcellulose) (HPC))?
The T/C was 94 % of control.

What about the T/C (dose: 240.0 mg/kg/injection, schedule: Q01DX005 (ip), vehicle: Klucel (hydroxypropylcellulose) (HPC)) of the same compound?
The T/C was 90 % of control.

`C=CC(C)(C)C12CC3C(=O)Nc4ccccc4C(=O)N3C1Nc1ccccc12` (centres undefined) was tested. Which T/C (dose: 25.0 mg/kg/injection, schedule: Q01DX005 (ip), vehicle: distilled water + Tween-80 + alcohol) did it give?
Its T/C is 95 % of control.

What about the T/C (dose: 50.0 mg/kg/injection, schedule: Q01DX005 (ip), vehicle: distilled water + Tween-80 + alcohol) of the same compound?
The T/C was 97 % of control.

What about the T/C (dose: 100.0 mg/kg/injection, schedule: Q01DX005 (ip), vehicle: distilled water + Tween-80 + alcohol) of the same compound?
The T/C was 103 % of control.

What about the T/C (dose: 200.0 mg/kg/injection, schedule: Q01DX005 (ip), vehicle: distilled water + Tween-80 + alcohol) of the same compound?
Its T/C is 98 % of control.

`Cc1ccc(-c2cn3c(n2)SCC3)cc1` was tested. Which T/C (dose: 100.0 mg/kg/injection, schedule: Q04DX003 (ip), vehicle: Klucel (hydroxypropylcellulose) (HPC)) did it give?
Its T/C is 99 % of control.

And the T/C (dose: 200.0 mg/kg/injection, schedule: Q04DX003 (ip), vehicle: Klucel (hydroxypropylcellulose) (HPC))?
Its T/C is 106 % of control.

And the T/C (dose: 400.0 mg/kg/injection, schedule: Q04DX003 (ip), vehicle: Klucel (hydroxypropylcellulose) (HPC))?
Its T/C is 99 % of control.

Which T/C (dose: 50.0 mg/kg/injection, schedule: Q04DX003 (ip), vehicle: saline with Tween-80) does the source give for `CCCCCCC(O)C(CCCCCC)[Se]C` (centres undefined) here?
The T/C was 104 % of control.

What about the T/C (dose: 100.0 mg/kg/injection, schedule: Q04DX003 (ip), vehicle: saline with Tween-80) of the same compound?
Its T/C is 106 % of control and 115 % of control.

What about the T/C (dose: 200.0 mg/kg/injection, schedule: Q04DX003 (ip), vehicle: saline with Tween-80) of the same compound?
The T/C was 100 % of control.

Which T/C (dose: 60.0 mg/kg/injection, schedule: Q04DX002 (ip), vehicle: Klucel + Tween-80) does the source give for `Cc1cc(C)c2c(Nc3ccc4c(c3)OCO4)c(C(=O)O)cnc2c1` here?
The T/C was 95 % of control.

What about the T/C (dose: 120.0 mg/kg/injection, schedule: Q04DX002 (ip), vehicle: Klucel + Tween-80) of the same compound?
The T/C was 92 % of control.

And the T/C (dose: 240.0 mg/kg/injection, schedule: Q04DX002 (ip), vehicle: Klucel + Tween-80)?
Its T/C is 101 % of control.

What does the source list for `OCCOCCN1CCN(C(c2ccccc2)c2ccccc2)CC1`?
T/C (dose: 50.0 mg/kg/injection, schedule: Q01DX009 (ip), vehicle: saline): 103 % of control; T/C (dose: 100.0 mg/kg/injection, schedule: Q01DX009 (ip), vehicle: saline): 103 % of control

What does the source list for `Cc1ccc(NC(=O)NC(=O)CCl)cc1`?
T/C (dose: 6.25 mg/kg/injection, schedule: Q01DX009 (ip), vehicle: Klucel (hydroxypropylcellulose) (HPC)): 105 % of control; T/C (dose: 12.5 mg/kg/injection, schedule: Q01DX009 (ip), vehicle: Klucel (hydroxypropylcellulose) (HPC)): 99 % of control; T/C [4]: 101 % of control and 105 % of control; T/C (dose: 25.0 mg/kg/injection, schedule: Q01DX009 (ip), vehicle: saline with Tween-80): 92 % of control; T/C [5]: 104 % of control and 108 % of control and 113 % of control; T/C [6]: 123 % of control; T/C [2]: 106 % of control

For `Nc1nc(SCc2cccc(Br)c2)c2ncn(C3OC(CO)C(O)C3O)c2n1` (centres undefined), which T/C [1] is on record?
The T/C was 109 % of control.

And the T/C (dose: 66.0 mg/kg/injection, schedule: Q01DX009 (ip), vehicle: saline with Tween-80)?
The T/C was 100 % of control.

What about the T/C [3] of the same compound?
Its T/C is 104 % of control.

With `CN(C)CCCOc1cccc(NC2=C(Cl)C(=O)C(Nc3cccc(OCCCN(C)C)c3)=C(Cl)C2=O)c1` as the compound, how does the T/C (dose: 6.25 mg/kg/injection, schedule: Q01DX005 (ip), vehicle: Klucel (hydroxypropylcellulose) (HPC)) read?
Its T/C is 99 % of control.

What about the T/C (dose: 12.5 mg/kg/injection, schedule: Q01DX005 (ip), vehicle: Klucel (hydroxypropylcellulose) (HPC)) of the same compound?
Its T/C is 100 % of control.

What about the T/C (dose: 25.0 mg/kg/injection, schedule: Q01DX005 (ip), vehicle: Klucel (hydroxypropylcellulose) (HPC)) of the same compound?
Its T/C is 109 % of control.

And the T/C (dose: 50.0 mg/kg/injection, schedule: Q01DX005 (ip), vehicle: Klucel (hydroxypropylcellulose) (HPC))?
Its T/C is 100 % of control.

What does the source list for `CC1(CCOCc2ccccc2)NC(=O)NC1=O` (centres undefined)?
T/C [2]: 90 % of control; T/C [3]: 100 % of control; T/C (dose: 400.0 mg/kg/injection, schedule: Q01DX009 (ip), vehicle: saline with Tween-80): 100 % of control

Which results are given for `CCOC(=O)Cc1cc2c(cc1C)CNC(=O)C2`?
T/C (dose: 6.25 mg/kg/injection, schedule: Q01DX009 (ip), vehicle: distilled water + Tween-80): 94 % of control; T/C (dose: 12.5 mg/kg/injection, schedule: Q01DX009 (ip), vehicle: distilled water + Tween-80): 100 % of control; T/C (dose: 25.0 mg/kg/injection, schedule: Q01DX009 (ip), vehicle: distilled water + Tween-80): 100 % of control; T/C (dose: 50.0 mg/kg/injection, schedule: Q01DX009 (ip), vehicle: distilled water + Tween-80): 94 % of control; T/C (dose: 100.0 mg/kg/injection, schedule: Q01DX009 (ip), vehicle: distilled water + Tween-80): 94 % of control; T/C (dose: 200.0 mg/kg/injection, schedule: Q01DX009 (ip), vehicle: distilled water + Tween-80): 90 % of control; T/C (dose: 400.0 mg/kg/injection, schedule: Q01DX009 (ip), vehicle: distilled water + Tween-80): 102 % of control

What does the source list for `CNC(=O)Oc1ccc2c(c1)[C@]1(C)CCN(C)[C@@H]1N2C`?
T/C (dose: 0.05 mg/kg/injection, schedule: Q01DX005 (ip), vehicle: saline with Tween-80): 98 % of control; T/C (dose: 0.05 mg/kg/injection, schedule: Q01DX009 (ip), vehicle: saline): 102 % of control; T/C (dose: 0.1 mg/kg/injection, schedule: Q01DX005 (ip), vehicle: saline with Tween-80): 99 % of control; T/C (dose: 0.1 mg/kg/injection, schedule: Q01DX009 (ip), vehicle: saline): 101 % of control; T/C (dose: 0.2 mg/kg/injection, schedule: Q01DX005 (ip), vehicle: saline with Tween-80): 99 % of control; T/C (dose: 0.2 mg/kg/injection, schedule: Q01DX009 (ip), vehicle: saline): 97 % of control; T/C (dose: 0.4 mg/kg/injection, schedule: Q01DX005 (ip), vehicle: saline with Tween-80): 93 % of control; T/C (dose: 0.4 mg/kg/injection, schedule: Q01DX009 (ip), vehicle: saline): 111 % of control

What does the source list for `CCn1c2ccc(NC(=O)OC(C)C)cc2c2c3[nH]c(=O)c4cccn4c3ccc21`?
T/C (dose: 100.0 mg/kg/injection, schedule: Q01DX001 (ip), vehicle: saline with Tween-80): 87 % of control; T/C (dose: 200.0 mg/kg/injection, schedule: Q01DX001 (ip), vehicle: saline with Tween-80): 87 % of control; T/C (dose: 400.0 mg/kg/injection, schedule: Q01DX001 (ip), vehicle: saline with Tween-80): 92 % of control

Which T/C (dose: 33.0 mg/kg/injection, schedule: Q04DX003 (ip), vehicle: saline with Tween-80) does the source give for `CCCCCCCCCCCCCCCC(=O)NCCO` here?
Its T/C is 91 % of control.

What about the T/C (dose: 75.0 mg/kg/injection, schedule: Q04DX003 (ip), vehicle: saline with Tween-80) of the same compound?
Its T/C is 87 % of control.
